Data from paper PMC11938010, “Positive Charge in an Antimalarial Compound Unlocks Broad-Spectrum Antibacterial Activity” (JACS Au, 2025).
In brackets after ≈: the same amount, converted by molar mass. Read-outs that look alike come from different tables or passages of the source.

Columns and labels:
[1] = test system: Streptococcus pneumoniae (DSM20566); assay: In vitro antibacterial activity (MIC), S. pneumoniae; format: cell-based; settings: Streptococcus pneumoniae, DSM20566, read-out: Sp MIC95
[2] = test system: Staphylococcus aureus ssp. Aureus; assay: In vitro antibacterial activity (MIC), S. aureus; format: cell-based; settings: Staphylococcus aureus, read-out: Sa MIC95
[3] = test system: Plasmodium falciparum NF54; assay: P. falciparum in vitro drug sensitivity assay on asexual blood stage parasites ([3H]-hypoxanthine incorporation); format: cell-based; settings: read-out: PfNF54 IC50
Escherichia coli ∆tolC = assay: microbe, parasite or virus in culture; format: cell-based; settings: Escherichia coli; for inhibition at 50 µM: read-out: Ec∆tolC inh. at 50 µM (%)
Solubility in 7H9 medium = format: physicochemical; settings: M. tuberculosis growth medium (7H9)
in vitro = settings: human, HepG2 CC50, 48 h, MTT
[4] = test system: Pseudomonas aeruginosa PA14; assay: In vitro antibacterial activity (growth inhibition, OD600), P. aeruginosa; format: cell-based; settings: PA14, 50 μM compound, Table 1 and main text, read-out: PA14 inh. at 50 μM
[5] = test system: Mycobacterium tuberculosis (Mtb) strain H37Rv; assay: microbe, parasite or virus in culture; format: cell-based; settings: 168 h, 7 days, footnote b: not active at maximum solubility, read-out: MtbH37Rv MIC90
Acinetobacter baumannii = assay: In vitro antibacterial activity (growth inhibition, OD600), A. baumannii; format: cell-based; settings: for MIC: read-out: Ab MIC95
E. coli K12 = assay: In vitro antibacterial activity (growth inhibition, OD600), E. coli wild-type; format: cell-based; settings: Escherichia coli
[6] = Table S2, with standard deviation
[7] = Plasmodium falciparum, NF54, Table 1 and main text
[8] = 50 μM compound, Table 1 and main text, read-out: Ab inh. at 50 μM
[9] = K12, 50 μM compound, Table 1 and main text, read-out: EcK12 inh. at 50 μM
[10] = Table S1, printed inside the inhibition column, with standard deviation, unit from Table 1 footnote
[11] = printed inside the Ab inhibition column, Table 1 and main text
[12] = K12, read-out: EcK12 inh. at 50 μM, 50 μM compound, Table 1 and main text
[13] = 50 µM, Table S1, with standard deviation, read-out: Ab inh. at 50 µM (%)

Row | Compound | MIC ([1]; Table 1 and main text) | MIC [1, 6] | MIC ([2]; Table 1 and main text) | MIC [2, 6] | IC50 [3, 7] | MIC (Escherichia coli ∆tolC; read-out: EcΔtolC MIC95) | CC50 (in vitro) | inhibition at 50 µM [4] | MIC90 [5] | inhibition at 50 µM (Acinetobacter baumannii; [8]) | MIC (Escherichia coli ∆tolC; read-out: Ec∆tolC MIC95 (µM)) | inhibition at 50 µM (E. coli K12; [9]) | further results
1 | O=C(Nc1cccc(F)c1)c1cc(-c2cc(Cl)ccc2O)[nH]n1 [Compound 1b] | > 50 µM | > 50 µM | > 50 µM | > 50 µM | 700 nM | > 50 µM | – | – | – | – | – | – | 7h9 media Sol. (Solubility in 7H9 medium): < 8 µM
2 | CC(C)(C)OC(=O)NCc1ccc(NC(=O)c2cc(-c3cc(Cl)ccc3O)[nH]n2)cc1 [Compound 8B] | > 50 µM | > 50 µM | > 50 µM | > 50 µM | 1700 nM | > 50 µM | > 50 µM | – | – | – | – | – | inhibition at 50 µM (Escherichia coli ∆tolC): < 10%; 7h9 media Sol. (Solubility in 7H9 medium): < 8 µM
3 | O=C(Nc1ccc(CNC2=NCCN2)cc1)c1cc(-c2cc(Cl)ccc2O)[nH]n1 [Compound 8C] | > 50 µM | > 50 µM | 49 µM (≈ 20.1 µg/mL) | 49 ± 1 µM (≈ 20.1 µg/mL) | 670 nM | 21.5 µM (≈ 8.83 µg/mL) | > 50 µM | 10% | > 64 µM | 12% | 21.5 µM (≈ 8.83 µg/mL) | < 10% | –
4 | N=C(N)NCc1ccc(NC(=O)c2cc(-c3cc(Cl)ccc3O)[nH]n2)cc1 [Compound 8G, 5-(5-Chloro-2-hydroxyphenyl)-N-(4-(guanidinomethyl)phenyl)-1H-pyrazole-3-carboxamide] | > 50 µM | > 50 µM | 22 µM (≈ 8.47 µg/mL) | 22 ± 1 µM (≈ 8.47 µg/mL) | 420 nM | 47.5 µM (≈ 18.3 µg/mL) | > 50 µM | 41% | > 64 µM | 19.9% | 47.5 µM (≈ 18.3 µg/mL) | 29% | –
5 | NCc1cc(NC(=O)c2cc(-c3cc(Cl)ccc3O)[nH]n2)cc(C(F)(F)F)c1 [Compound 9A, N-(3-(Aminomethyl)-5-(trifluoromethyl)phenyl)-5-(5-chloro-2-hydroxyphenyl)-1H-pyrazole-3-carboxamide] | 11 µM (≈ 4.52 µg/mL) | 10.8 ± 2.5 µM (≈ 4.44 µg/mL) | 12.1 µM (≈ 4.97 µg/mL) | 12.1 ± 0.6 µM (≈ 4.97 µg/mL) | 82 nM | 8 µM (≈ 3.29 µg/mL) | 7 µM | < 10% | 32 µM (≈ 13.1 µg/mL) | – | 8 ± 3 µM (≈ 3.29 µg/mL) | < 10% | MIC (Acinetobacter baumannii; [10]): 48.9 ± 0.5 µM (≈ 20.1 µg/mL); MIC (Acinetobacter baumannii; [11]): 49 µM (≈ 20.1 µg/mL)
6 | O=C(Nc1cc(CNC2=NCCN2)cc(C(F)(F)F)c1)c1cc(-c2cc(Cl)ccc2O)[nH]n1 [Compound 9C, 5-(5-Chloro-2-hydroxyphenyl)-N-(3-(((4,5-dihydro-1H-imidazol-2-yl)amino)methyl)-5-(trifluoromethyl)phenyl)-1H-pyrazole-3-carboxamide] | 15 µM (≈ 7.18 µg/mL) | 15 ± 4 µM (≈ 7.18 µg/mL) | 9 µM (≈ 4.31 µg/mL) | 9 ± 2 µM (≈ 4.31 µg/mL) | 517 nM | 7 µM (≈ 3.35 µg/mL) | > 50 µM | 18% | 16 µM (≈ 7.66 µg/mL) | 47% | 7 ± 1 µM (≈ 3.35 µg/mL) | – | inhibition at 50 µM (E. coli K12; K12, 50 µM, Table S1, with standard deviation, read-out: EcK12 inh. at 50 µM (%)): 84 ± 2%; inhibition at 50 µM (E. coli K12; [12]): < 10%
7 | N=C(N)NCc1cc(NC(=O)c2cc(-c3cc(Cl)ccc3O)[nH]n2)cc(C(F)(F)F)c1 [Compound 9G] | > 50 µM | > 50 µM | 8 µM (≈ 3.62 µg/mL) | 8 ± 3 µM (≈ 3.62 µg/mL) | 78 nM | 5 µM (≈ 2.26 µg/mL) | > 50 µM | 50% | 32 µM (≈ 14.5 µg/mL) | 59% | 5 ± 2 µM (≈ 2.26 µg/mL) | – | MIC (E. coli K12; K12, Table S1, printed inside the inhibition column, with standard deviation, unit from Table 1 footnote, read-out: EcK12 MIC95): 46 ± 2 µM (≈ 20.8 µg/mL)
8 | NCc1ccc(NC(=O)c2cc(-c3cc(Cl)ccc3O)[nH]n2)cc1C(F)(F)F [Compound 10A] | 23 µM (≈ 9.45 µg/mL) | 23 ± 3 µM (≈ 9.45 µg/mL) | 29 µM (≈ 11.9 µg/mL) | 29 ± 3 µM (≈ 11.9 µg/mL) | 150 nM | 22.9 µM (≈ 9.41 µg/mL) | 13 µM | < 10% | 64 µM (≈ 26.3 µg/mL) | 86% | 22.9 ± 0.1 µM (≈ 9.41 µg/mL) | 61% | –
9 | O=C(Nc1ccc(CNC2=NCCN2)c(C(F)(F)F)c1)c1cc(-c2cc(Cl)ccc2O)[nH]n1 [Compound 10C, 5-(5-Chloro-2-hydroxyphenyl)-N-(4-(((4,5-dihydro-1H-imidazol-2-yl)amino)methyl)-3-(trifluoromethyl)phenyl)-1H-pyrazole-3-carboxamide] | 14 µM (≈ 6.7 µg/mL) | 14 ± 2 µM (≈ 6.7 µg/mL) | 8 µM (≈ 3.83 µg/mL) | 8 ± 2 µM (≈ 3.83 µg/mL) | 404 nM | 5.5 µM (≈ 2.63 µg/mL) | > 50 µM | 29% | 16 µM (≈ 7.66 µg/mL) | 47% | 5.5 ± 0.8 µM (≈ 2.63 µg/mL) | – | inhibition at 50 µM (Acinetobacter baumannii; [13]): 49.6 ± 0.9%; inhibition at 50 µM (E. coli K12; [12]): 77%
10 | CC(C)(C)OC(=O)N1CCN=C1NCc1ccc(NC(=O)c2cc(-c3cc(Cl)ccc3O)[nH]n2)cc1C(F)(F)F [Compound 10D, tert-Butyl 2-((4-(5-(5-chloro-2-hydroxyphenyl)-1H-pyrazole-3-carboxamido)-2-(trifluoromethyl)benzyl)amino)-4,5-dihydro-1H-imidazole-1-carboxylate] | > 50 µM | > 50 µM | 11.6 µM (≈ 6.72 µg/mL) | 11.6 ± 0.2 µM (≈ 6.72 µg/mL) | 140 nM | 18 µM (≈ 10.4 µg/mL) | 11 µM | < 10% | 16 µM (≈ 9.26 µg/mL) | < 10% | 18 ± 6 µM (≈ 10.4 µg/mL) | 17% | –
11 | O=C(Nc1cc(N2CCNCC2)cc(C(F)(F)F)c1)c1cc(-c2cc(Cl)ccc2O)[nH]n1 [Compound 11A] | 5 µM (≈ 2.33 µg/mL) | 5 ± 1 µM (≈ 2.33 µg/mL) | 6 µM (≈ 2.8 µg/mL) | 6 ± 2 µM (≈ 2.8 µg/mL) | ≤ 60 nM | 7 µM (≈ 3.26 µg/mL) | 9 µM | < 10% | 32 µM (≈ 14.9 µg/mL) | – | 7 ± 2 µM (≈ 3.26 µg/mL) | 72% | MIC (Acinetobacter baumannii; [10]): 22 ± 3 µM (≈ 10.2 µg/mL); MIC (Acinetobacter baumannii; [11]): 22 µM (≈ 10.2 µg/mL); IC50 ([3]; Table 1 and main text): 50 nM
12 | CC(C)(C)OC(=O)N1CCN(c2cc(NC(=O)c3cc(-c4cc(Cl)ccc4O)[nH]n3)cc(C(F)(F)F)c2)CC1 [Compound 11B] | > 50 µM | > 50 µM | > 50 µM | > 50 µM | 130 nM | > 50 µM | 4 µM | – | – | – | – | – | inhibition at 50 µM (Acinetobacter baumannii; [13]): < 10%; inhibition at 50 µM (Escherichia coli ∆tolC): 18 ± 4%; 7h9 media Sol. (Solubility in 7H9 medium): < 8 µM
13 | O=C(Nc1cc(N2CCN(C3=NCCN3)CC2)cc(C(F)(F)F)c1)c1cc(-c2cc(Cl)ccc2O)[nH]n1 [Compound 11C, 5-(5-Chloro-2-hydroxyphenyl)-N-(3-(4-(4,5-dihydro-1H-imidazol-2-yl)piperazin-1-yl)-5-(trifluoromethyl)phenyl)-1H-pyrazole-3-carboxamide] | 7 µM (≈ 3.74 µg/mL) | 7 ± 2 µM (≈ 3.74 µg/mL) | 8 µM (≈ 4.27 µg/mL) | 8 ± 2 µM (≈ 4.27 µg/mL) | 590 nM | 7 µM (≈ 3.74 µg/mL) | > 50 µM | < 10% | 8 µM (≈ 4.27 µg/mL) | 53% | 7 ± 2 µM (≈ 3.74 µg/mL) | 63% | –
14 | O=C(Nc1ccc(N2CCNCC2)c(C(F)(F)F)c1)c1cc(-c2cc(Cl)ccc2O)[nH]n1 [Compound 12A, 5-(5-Chloro-2-hydroxyphenyl)-N-(4-(piperazin-1-yl)-3-(trifluoromethyl)phenyl)-1H-pyrazole-3-carboxamide] | 8 µM (≈ 3.73 µg/mL) | 8 ± 2 µM (≈ 3.73 µg/mL) | 14 µM (≈ 6.52 µg/mL) | 14 ± 2 µM (≈ 6.52 µg/mL) | ≤ 60 nM | 18.9 µM (≈ 8.8 µg/mL) | 6 µM | < 10% | 16 µM (≈ 7.45 µg/mL) | 29% | 18.9 ± 0.5 µM (≈ 8.8 µg/mL) | 12% | IC50 ([3]; Table 1 and main text): 60 nM
